Assay: Pharmacokinetics of Coenzyme Q10 in plasma during and after 144-hour continuous IV infusion
Format: in vivo, human
Parameters: Coenzyme Q10 concentration in plasma, Mean ± SD: unit not given here
Procedure: Pharmacokinetics of Coenzyme Q10 was measured in the patients at time zero and at several time points during and after the 144-hour continuous intravenous (IV) infusion with Coenzyme Q10.

COC1=C(OC)C(=O)C(C/C=C(\C)CC/C=C(\C)CC/C=C(\C)CC/C=C(\C)CC/C=C(\C)CC/C=C(\C)CC/C=C(\C)CC/C=C(\C)CC/C=C(\C)CCC=C(C)C)=C(C)C1=O [Coenzyme Q10]
Coenzyme Q10 concentration in plasma, Mean ± SD (220 mg/kg/week, Arm 2, n = 9 (footnote c), time 96 hr): 348 ± 225^c | Coenzyme Q10 concentration in plasma, Mean ± SD (220 mg/kg/week, Arm 2, n = 9 (footnote c), time 148 hr): 250 ± 251^c | Coenzyme Q10 concentration in plasma, Mean ± SD (220 mg/kg/week, Arm 2, n = 11 (footnote b), time 4 hr): 158 ± 57^b | Coenzyme Q10 concentration in plasma, Mean ± SD (220 mg/kg/week, Arm 2, n = 11 (footnote b), time 140 hr): 378 ± 244^b | Coenzyme Q10 concentration in plasma, Mean ± SD (220 mg/kg/week, Arm 2, n = 11 (footnote b), time 146 hr): 282 ± 207^b | Coenzyme Q10 concentration in plasma, Mean ± SD (220 mg/kg/week, Arm 2, n = 12 (footnote a), time 1 hr): 150 ± 54^a | Coenzyme Q10 concentration in plasma, Mean ± SD (220 mg/kg/week, Arm 2, n = 12 (footnote a), time 73 hr): 227 ± 212^a | Coenzyme Q10 concentration in plasma, Mean ± SD (220 mg/kg/week, Arm 2, n = 12 (footnote a), time 74 hr): 226 ± 193^a | Coenzyme Q10 concentration in plasma, Mean ± SD (220 mg/kg/week, Arm 2, n = 12 (footnote a), time 143.5 hr): 363 ± 221^a | Coenzyme Q10 concentration in plasma, Mean ± SD (220 mg/kg/week, Arm 2, n = 13, time 0 hr): 0 | Coenzyme Q10 concentration in plasma, Mean ± SD (220 mg/kg/week, Arm 2, n = 13, time 2 hr): 163 ± 66^ | Coenzyme Q10 concentration in plasma, Mean ± SD (220 mg/kg/week, Arm 2, n = 13, time 24 hr): 251 ± 155 | Coenzyme Q10 concentration in plasma, Mean ± SD (220 mg/kg/week, Arm 2, n = 13, time 71.5 hr): 255 ± 199 | Coenzyme Q10 concentration in plasma, Mean ± SD (220 mg/kg/week, Arm 2, n = 13, time 142 hr): 358 ± 214 | Coenzyme Q10 concentration in plasma, Mean ± SD (274 mg/kg/week, Arm 1, n = 3 (so in the source), time 0 hr): 0 | Coenzyme Q10 concentration in plasma, Mean ± SD (274 mg/kg/week, Arm 1, n = 3 (so in the source), time 1 hr): 173 ± 36 | Coenzyme Q10 concentration in plasma, Mean ± SD (274 mg/kg/week, Arm 1, n = 3 (so in the source), time 2 hr): 175 ± 42 | Coenzyme Q10 concentration in plasma, Mean ± SD (274 mg/kg/week, Arm 1, n = 3 (so in the source), time 4 hr): 185 ± 51 | Coenzyme Q10 concentration in plasma, Mean ± SD (274 mg/kg/week, Arm 1, n = 3 (so in the source), time 24 hr): 261 ± 149 | Coenzyme Q10 concentration in plasma, Mean ± SD (274 mg/kg/week, Arm 1, n = 3 (so in the source), time 71.5 hr): 390 ± 260 | Coenzyme Q10 concentration in plasma, Mean ± SD (274 mg/kg/week, Arm 1, n = 3 (so in the source), time 73 hr): 329 ± 260 | Coenzyme Q10 concentration in plasma, Mean ± SD (274 mg/kg/week, Arm 1, n = 3 (so in the source), time 74 hr): 335 ± 242 | Coenzyme Q10 concentration in plasma, Mean ± SD (274 mg/kg/week, Arm 1, n = 3 (so in the source), time 96 hr): 416 ± 291 | Coenzyme Q10 concentration in plasma, Mean ± SD (274 mg/kg/week, Arm 1, n = 3 (so in the source), time 140 hr): 513 ± 213 | Coenzyme Q10 concentration in plasma, Mean ± SD (274 mg/kg/week, Arm 1, n = 3 (so in the source), time 142 hr): 514 ± 260 | Coenzyme Q10 concentration in plasma, Mean ± SD (274 mg/kg/week, Arm 1, n = 3 (so in the source), time 143.5 hr): 510 ± 259 | Coenzyme Q10 concentration in plasma, Mean ± SD (274 mg/kg/week, Arm 1, n = 3 (so in the source), time 146 hr): 486 ± 254 | Coenzyme Q10 concentration in plasma, Mean ± SD (274 mg/kg/week, Arm 1, n = 3 (so in the source), time 148 hr): 380 ± 219 | Coenzyme Q10 concentration in plasma, Mean ± SD (274 mg/kg/week, Arm 1, n = 4 (footnote e), time 96 hr): 407 ± 195^e | Coenzyme Q10 concentration in plasma, Mean ± SD (274 mg/kg/week, Arm 1, n = 4 (footnote e), time 140 hr): 517 ± 185^e | Coenzyme Q10 concentration in plasma, Mean ± SD (274 mg/kg/week, Arm 1, n = 4 (footnote e), time 142 hr): 528 ± 179^e | Coenzyme Q10 concentration in plasma, Mean ± SD (274 mg/kg/week, Arm 1, n = 5 (footnote d), time 4 hr): 181 ± 56^d | Coenzyme Q10 concentration in plasma, Mean ± SD (274 mg/kg/week, Arm 1, n = 5 (footnote d), time 71.5 hr): 265 ± 188^d | Coenzyme Q10 concentration in plasma, Mean ± SD (274 mg/kg/week, Arm 1, n = 5 (footnote d), time 146 hr): 460 ± 249^d | Coenzyme Q10 concentration in plasma, Mean ± SD (274 mg/kg/week, Arm 1, n = 5 (footnote d), time 148 hr): 397 ± 230^d | Coenzyme Q10 concentration in plasma, Mean ± SD (274 mg/kg/week, Arm 1, n = 6, time 0 hr): 0 | Coenzyme Q10 concentration in plasma, Mean ± SD (274 mg/kg/week, Arm 1, n = 6, time 1 hr): 188 ± 46 | Coenzyme Q10 concentration in plasma, Mean ± SD (274 mg/kg/week, Arm 1, n = 6, time 2 hr): 190 ± 38 | Coenzyme Q10 concentration in plasma, Mean ± SD (274 mg/kg/week, Arm 1, n = 6, time 24 hr): 287 ± 189 | Coenzyme Q10 concentration in plasma, Mean ± SD (274 mg/kg/week, Arm 1, n = 6, time 73 hr): 367 ± 313 | Coenzyme Q10 concentration in plasma, Mean ± SD (274 mg/kg/week, Arm 1, n = 6, time 74 hr): 387 ± 332 | Coenzyme Q10 concentration in plasma, Mean ± SD (274 mg/kg/week, Arm 1, n = 6, time 143.5 hr): 560 ± 246 | Coenzyme Q10 concentration in plasma, Mean ± SD (342 mg/kg/week, Arm 1, n = 4 (footnote e), time 96 hr): 411 ± 189^e | Coenzyme Q10 concentration in plasma, Mean ± SD (342 mg/kg/week, Arm 1, n = 4 (footnote e), time 140 hr): 695 ± 414^e

Source: patent US20230274799A1, “SYSTEMS AND METHODS FOR PATIENT STRATIFICATION AND IDENTIFICATION OF POTENTIAL BIOMARKERS” (Berg LLC, priority 2016, published 2023)
